Results from patent publication US6720314B1, “Use of a vital dye for facilitating surgical procedures for cataract extraction” (priority 1998, dated 2004).

Assays:
anterior lens capsule = assay: staining capacity of the dyes (general statement); details: very low amounts of dye
[1] = toxicity profile of the dyes (general statement)

Row | Structure (SMILES) | staining (anterior lens capsule) | toxicity profile [1]
1 | Cc1cc(-c2ccc(/N=N/c3c(S(=O)(=O)O)cc4cc(S(=O)(=O)O)cc(N)c4c3O)c(C)c2)ccc1/N=N/c1c(S(=O)(=O)O)cc2cc(S(=O)(=O)O)cc(N)c2c1O [trypan blue] | clearly visible staining at very low amounts | extremely advantageous toxicity profile
2 | Nc1c(S(=O)(=O)[O-])cc2cc(S(=O)(=O)[O-])ccc2c1N=Nc1ccc(-c2ccc(N=Nc3c(N)c(S(=O)(=O)[O-])cc4cc(S(=O)(=O)[O-])ccc34)c(S(=O)(=O)[O-])c2)cc1.[Na+].[Na+].[Na+].[Na+].[Na+] [trypan red] | clearly visible staining at very low amounts | 
3 | CCN(CC)c1ccc2nc3cc(C)c(N)cc3[o+]c2c1.[Cl-] [brilliant crysyl blue] | clearly visible staining at very low amounts | extremely advantageous toxicity profile
